From patent US8729089B2 (Gilead Sciences, Inc., priority 2006, dated 2014)
pEC50: −log10 of the molar value.

Key:
[1] = tested on: HCV replicon in human hepatoma Huh-7 cell line; assay: Anti-HCV replicon assay (EC50, luciferase); assay type: cell-based; conditions: Hepatitis C virus, Huh-7, 72 h
Method in brief: (§1)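 Huh-7 cells carrying an HCV replicon (6000/well) exposed to 3-fold serial compound dilutions for 3 days at 37 °C, final DMSO 0.5% where used. EC50 read as replicon luciferase luminescence after cell lysis; CC50 from CellTiter-Glo luminescence after 10 min at room temperature.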

[2] = CC50 assay (CellTiter-Glo) in Huh-7 HCV replicon cells; assay type: cell-based, human; conditions: human, 3 days incubation, CellTiter-Glo readout
Method in brief: as §1

SMILES | pEC50 [1] | CC50 at 3 days [2] [µM]
CCOc1nc(NCc2ccc(NS(C)(=O)=O)cc2)nc2ccc(-c3ccc(F)cc3)nc12 [Example 271, N-(4-{[4-Ethoxy-6-(4-fluoro-phenyl)-pyrido[3,2-d]pyrimidin-2-ylamino]-methyl}-phenyl)-methanesulfonamide] | > 7.00 | 5 to 25
NC(=O)c1ccc(-c2ccc3nc(NCc4ccc(F)cc4)nc(NCC(F)(F)F)c3n2)cc1 [Example 272, 4-[2-(4-Fluoro-benzylamino)-4-(2,2,2-trifluoro-ethylamino)-pyrido[3,2-d]pyrimidin-6-yl]-benzamide] | > 7.00 | < 5
CN(CCS(C)(=O)=O)c1nc(NCc2ccc(F)cc2)nc2ccc(-c3ccc(C(N)=O)cc3)nc12 [Example 273, 4-{2-(4-Fluoro-benzylamino)-4-[(2-methanesulfonyl-ethyl)-methyl-amino]-pyrido[3,2-d]pyrimidin-6-yl}-benzamide] | > 7.00 | 5 to 25
CS(=O)(=O)CCNc1nc(NCc2ccc(F)cc2)nc2ccc(-c3ccc(C(N)=O)cc3)nc12 [Example 274, 4-[2-(4-Fluoro-benzylamino)-4-(2-methanesulfonyl-ethylamino)-pyrido[3,2-d]pyrimidin-6-yl]-benzamide] | > 7.00 | < 5
O=C1C(O)CCN1c1ccc(-c2ccc3nc(NCc4ccc(F)cc4)nc(NCC(F)(F)F)c3n2)cc1 (stereo not shown) [Example 275, 1-{4-[2-(4-Fluoro-benzylamino)-4-(2,2,2-trifluoro-ethylamino)-pyrido[3,2-d]pyrimidin-6-yl]-phenyl}-3-hydroxy-pyrrolidin-2-one] | > 7.00 | < 5
CS(=O)(=O)N(CCO)c1cccc(-c2ccc3nc(NCc4ccc(F)cc4)nc(NCC(F)(F)F)c3n2)c1 [Example 276, N-{3-[2-(4-Fluoro-benzylamino)-4-(2,2,2-trifluoro-ethylamino)-pyrido[3,2-d]pyrimidin-6-yl]-phenyl}-N-(2-hydroxy-ethyl)-methanesulfonamide] | > 7.00 | 5 to 25
CC(C)(N)C(=O)Nc1ccc(-c2ccc3nc(NCc4ccc(F)cc4)nc(NCC(F)(F)F)c3n2)cc1 [Example 277, 2-Amino-N-{4-[2-(4-fluoro-benzylamino)-4-(2,2,2-trifluoro-ethylamino)-pyrido[3,2-d]pyrimidin-6-yl]-phenyl}-2-methyl-propionamide] | > 7.00 | < 5
O=C(Nc1ccc(-c2ccc3nc(NCc4ccc(F)cc4)nc(NCC(F)(F)F)c3n2)cc1)C1(O)CC1 [Example 278, 1-Hydroxy-cyclopropanecarboxylic acid {4-[2-(4-fluoro-benzylamino)-4-(2,2,2-trifluoro-ethylamino)-pyrido[3,2-d]pyrimidin-6-yl]-phenyl}-amide] | > 7.00 | 5 to 25
CN(CCS(C)(=O)=O)c1nc(NCc2ccc(F)cc2)nc2ccc(-c3cccc(N(CCO)S(C)(=O)=O)c3)nc12 [Example 279, N-(3-{2-(4-Fluoro-benzylamino)-4-[(2-methanesulfonyl-ethyl)-methyl-amino]-pyrido[3,2-d]pyrimidin-6-yl}-phenyl)-N-(2-hydroxy-ethyl)-methanesulfonamide] | > 7.00 | 5 to 25
CN(CCS(C)(=O)=O)c1nc(NCc2ccc(F)cc2)nc2ccc(-c3ccc(NC(=O)C(C)(C)N)cc3)nc12 [Example 280, 2-Amino-N-(4-{2-(4-fluoro-benzylamino)-4-[(2-methanesulfonyl-ethyl)-methyl-amino]-pyrido[3,2-d]pyrimidin-6-yl}-phenyl)-2-methyl-propionamide] | > 7.00 | 5 to 25
CN(CCS(C)(=O)=O)c1nc(NCc2ccc(F)cc2)nc2ccc(-c3ccc(NC(=O)C4(O)CC4)cc3)nc12 [Example 281, 1-Hydroxy-cyclopropanecarboxylic acid (4-{2-(4-fluoro-benzylamino)-4-[(2-methanesulfonyl-ethyl)-methyl-amino]-pyrido[3,2-d]pyrimidin-6-yl}-phenyl)-amide] | > 7.00 | 5 to 25
CS(=O)(=O)CCNc1nc(NCc2ccc(F)cc2)nc2ccc(-c3cnc(N)s3)nc12 [Example 282, 6-(2-Amino-thiazol-5-yl)-N2-(4-fluoro-benzyl)-N4-(2-methanesulfonyl-ethyl)-pyrido[3,2-d]pyrimidine-2,4-diamine] | > 7.00 | > 25
N#CC1(NC(=O)c2ccc(-c3ccc4nc(NCc5ccc(F)cc5)nc(O[C@H]5CCOC5)c4n3)cc2)CC1 [Example 283, N-(1-Cyano-cyclopropyl)-4-[2-(4-fluoro-benzylamino)-4-(tetrahydro-furan-3-yloxy)-pyrido[3,2-d]pyrimidin-6-yl]-benzamide] | > 7.00 | < 5
CC(C)Nc1cnn(-c2ccc3nc(NCc4ccc(S(N)(=O)=O)cc4)nc(NCC(F)(F)F)c3n2)c1 [Example 284, 4-{[6-(4-Isopropylamino-pyrazol-1-yl)-4-(2,2,2-trifluoro-ethylamino)-pyrido[3,2-d]pyrimidin-2-ylamino]-methyl}-benzenesulfonamide] | > 7.00 | > 25
NS(=O)(=O)c1ccc(CNc2nc(NCC(F)(F)F)c3nc(-n4cncn4)ccc3n2)cc1 [Example 285, 4-{[6-[1,2,4]Triazol-1-yl-4-(2,2,2-trifluoro-ethylamino)-pyrido[3,2-d]pyrimidin-2-ylamino]-methyl}-benzenesulfonamide] | > 7.00 | > 25
NS(=O)(=O)c1ccc(CNc2nc(NCC(F)(F)F)c3nc(-n4ccnc4)ccc3n2)cc1 [Example 286, 4-{[6-Imidazol-1-yl-4-(2,2,2-trifluoro-ethylamino)-pyrido[3,2-d]pyrimidin-2-ylamino]-methyl}-benzenesulfonamide] | > 7.00 | 5 to 25
NS(=O)(=O)c1ccc(CNc2nc(NCC(F)(F)F)c3nc(-c4ccc(=O)[nH]c4)ccc3n2)cc1 [Example 287, 4-{[6-(6-Oxo-1,6-dihydro-pyridin-3-yl)-4-(2,2,2-trifluoro-ethylamino)-pyrido[3,2-d]pyrimidin-2-ylamino]-methyl}-benzenesulfonamide] | > 7.00 | > 25
NS(=O)(=O)c1ccc(CNc2nc(NCC(F)(F)F)c3nc(-c4cc[nH]c(=O)c4)ccc3n2)cc1 [Example 288, 4-{[6-(2-Oxo-1,2-dihydro-pyridin-4-yl)-4-(2,2,2-trifluoro-ethylamino)-pyrido[3,2-d]pyrimidin-2-ylamino]-methyl}-benzenesulfonamide] | > 7.00 | > 25
NS(=O)(=O)c1ccc(CNc2nc(C3CC3)c3nc(-c4ccc(F)c(S(N)(=O)=O)c4)ccc3n2)cc1 [Example 289, 5-[4-Cyclopropyl-2-(4-sulfamoyl-benzylamino)-pyrido[3,2-d]pyrimidin-6-yl]-2-fluoro-benzenesulfonamide] | > 7.00 | 5 to 25
NC(=O)Nc1ccc(-c2ccc3nc(NCc4ccc(S(N)(=O)=O)cc4)nc(C4CC4)c3n2)cc1 [Example 290, 4-{[4-Cyclopropyl-6-(4-ureido-phenyl)-pyrido[3,2-d]pyrimidin-2-ylamino]-methyl}-benzenesulfonamide] | > 7.00 | 5 to 25
NS(=O)(=O)c1ccc(CNc2nc(C3CC3)c3nc(-c4cccc(S(N)(=O)=O)c4)ccc3n2)cc1 [Example 291, 4-{[4-Cyclopropyl-6-(3-(aminosulfonyl)-phenyl)-pyrido[3,2-d]pyrimidin-2-ylamino]-methyl}-benzenesulfonamide] | > 7.00 | < 5
NC(=O)c1ccc(-c2ccc3nc(NCc4ccc(S(N)(=O)=O)cc4)nc(C4CC4)c3n2)cc1 [Example 292, 4-[4-Cyclopropyl-2-(4-sulfamoyl-benzylamino)-pyrido[3,2-d]pyrimidin-6-yl]-benzamide] | > 7.00 | 5 to 25
NS(=O)(=O)c1ccc(CNc2nc(C3CC3)c3nc(-c4ccc(C(=O)NC5CC5)cc4)ccc3n2)cc1 [Example 293, N-Cyclopropyl-4-[4-cyclopropyl-2-(4-sulfamoyl-benzylamino)-pyrido[3,2-d]pyrimidin-6-yl]-benzamide] | > 7.00 | < 5
NS(=O)(=O)c1ccc(CNc2nc(C3CC3)c3nc(-c4ccc(F)cc4)ccc3n2)cc1 [Example 294, 4-{[4-Cyclopropyl-6-(4-fluoro-phenyl)-pyrido[3,2-d]pyrimidin-2-ylamino]-methyl}-benzenesulfonamide] | > 7.00 | < 5
CCCc1nc(NCc2ccc(F)cc2)nc2ccc(-c3ccc(NC(=O)C(C)(C)N)cc3)nc12 [Example 295, 2-Amino-N-{4-[2-(4-fluoro-benzylamino)-4-propyl-pyrido[3,2-d]pyrimidin-6-yl]-phenyl}-2-methyl-propionamide] | > 7.00 | > 25
NS(=O)(=O)c1ccc(CNc2nc(NC3CC3)c3nc(-c4ccc(F)cc4)ccc3n2)cc1 [Example 296, 4-{[4-Cyclopropylamino-6-(4-fluoro-phenyl)-pyrido[3,2-d]pyrimidin-2-ylamino]-methyl}-benzenesulfonamide] | > 7.00 | > 25
CCNc1nc(NCc2ccc(S(N)(=O)=O)cc2)nc2ccc(-c3ccc(F)cc3)nc12 [Example 297, 4-{[4-Ethylamino-6-(4-fluoro-phenyl)-pyrido[3,2-d]pyrimidin-2-ylamino]-methyl}-benzenesulfonamide] | > 7.00 | < 5
Fc1ccc(CNc2nc(N[C@@H]3CCOC3)c3nc(-c4ccc(F)cc4)ccc3n2)cc1 [Example 298, N2-(4-Fluoro-benzyl)-6-(4-fluoro-phenyl)-N4-(tetrahydro-furan-3-yl)-pyrido[3,2-d]pyrimidine-2,4-diamine] | > 7.00 | 5 to 25
CS(=O)(=O)CCNc1nc(NCc2ccc(F)cc2)nc2ccc(-c3ccc(F)cc3)nc12 [Example 299, N2-(4-Fluoro-benzyl)-6-(4-fluoro-phenyl)-N4-(2-methanesulfonyl-ethyl)-pyrido[3,2-d]pyrimidine-2,4-diamine] | > 7.00 | 5 to 25
